Common to all, as to assay: Liquid medium dilution method (MIC)
Holding throughout (type): cell-based

The subject of test [1] is Streptococcus mitis 02mitCB1. As to conditions: 24 h incubation at 37°C, read-out: concentrations minimales inhibitrices (C.M.I.). The method, then:
(§1) Méthode des dilutions en milieu liquide
(§2) On prépare une série de tubes dans lesquels on répartit une même quantité de milieu nutritif stérile. On distribue dans chaque tube des quantités croissantes du produit à étudier, puis chaque tube est ensemencé avec une souche bactérienne. Après incubation de vingt-quatre heures à l'étuve à 37°C, l'inhibition de la croissance est appréciée par transillumination, ce qui permet de déterminer les concentrations minimales inhibitrices (C.M.I.) exprimées en microgrammes/cm^3.

Test [2] deals with Streptococcus pneumoniae 030RO1i. The settings on record: 24 h incubation at 37°C, read-out: concentrations minimales inhibitrices (C.M.I.). The method, then: as §1, §2
Test [3] has as its system Streptococcus agalactiae groupe B 02B1HT1. The settings on record: 24 h incubation at 37°C, read-out: concentrations minimales inhibitrices (C.M.I.). The method, then: as §1, §2
Test [4] has as its system Staphylococcus aureus 011UC4. The settings on record: 24 h incubation at 37°C, read-out: concentrations minimales inhibitrices (C.M.I.). The method, then:
as §1, §2

Test [5] has as its system Streptococcus agalactiae groupe B 02B1SJ1. The settings on record: 24 h incubation at 37°C, read-out: concentrations minimales inhibitrices (C.M.I.). The method, then: as §1, §2
In test [6] the test system is Streptococcus faecium groupe D 02D3HT1. As to conditions: Enterococcus faecium, 24 h incubation at 37°C, read-out: concentrations minimales inhibitrices (C.M.I.). The method, then: as §1, §2
For test [7], the system named is Streptococcus pneumoniae 030SJ1c. The settings on record: 24 h incubation at 37°C, read-out: concentrations minimales inhibitrices (C.M.I.). The method, then:
as §1, §2

Test [8] has as its system Streptococcus pneumoniae 030GR20. The settings on record: 24 h incubation at 37°C, read-out: concentrations minimales inhibitrices (C.M.I.). The method, then:
as §1, §2

The subject of test [9] is Streptococcus pneumoniae 030PW23c. The settings on record: 24 h incubation at 37°C, read-out: concentrations minimales inhibitrices (C.M.I.). The protocol: as §1, §2
In test [10] the test system is Streptococcus pneumoniae 032UC1. The settings on record: 24 h incubation at 37°C, read-out: concentrations minimales inhibitrices (C.M.I.). The method, then:
as §1, §2

Another test deals with Streptococcus sanguis. The settings on record: 24 h incubation at 37°C, read-out: concentrations minimales inhibitrices (C.M.I.). The method, then: as §1, §2
The test system of test [11] is Streptococcus pyogenes groupe A 02A1UC1. As to conditions: 24 h incubation at 37°C, read-out: concentrations minimales inhibitrices (C.M.I.). The method, then: as §1, §2
In test [12] the test system is Streptococcus faecalis groupe D 02D2UC1. The settings on record: Enterococcus faecalis, 24 h incubation at 37°C, read-out: concentrations minimales inhibitrices (C.M.I.). The method, then:
as §1, §2

In brackets after ≈: the same amount, converted by molar mass.

Regarding `CC[C@H]1OC(=O)[C@H](C)C(=O)[C@H](C)[C@@H](O[C@@H]2O[C@H](C)C[C@H](N(C)C)[C@H]2O)[C@](C)(OC)C[C@@H](C)/C(=N\OC2CCCNC2)[C@H](C)[C@H]2N(NCCCc3ccnc4ccccc34)C(=O)O[C@]12C` (stereo partly shown) [Exemple 3], the MIC in test [1] was 0.04 µg/mL (≈ 0.0447 µM); in [2] it was 0.08 µg/mL (≈ 0.0894 µM); in [3], 0.08 µg/mL (≈ 0.0894 µM); in test [4], 0.3 µg/mL (≈ 0.335 µM); in [5] it was 0.08 µg/mL (≈ 0.0894 µM); in test [6] it was 0.08 µg/mL (≈ 0.0894 µM). The MIC in test [7] is 0.15 µg/mL (≈ 0.168 µM); in test [8], 0.04 µg/mL (≈ 0.0447 µM); in test [9] it was 0.08 µg/mL (≈ 0.0894 µM); in [10] it was not above 0.02 µg/mL; in the test with Streptococcus sanguis, 0.08 µg/mL (≈ 0.0894 µM); in test [11], 0.08 µg/mL (≈ 0.0894 µM). Besides, the MIC in [12] is 0.08 µg/mL (≈ 0.0894 µM).

Values taken from EP0968222B1, “NOVEL ERYTHROMYCIN DERIVATIVES, METHOD OF PREPARATION AND APPLICATION AS MEDICINES” (Aventis Pharma S.A., priority 1997, dated 1998).
